From PubChem BioAssay AID270 (DTP/NCI, 2004)
Results filed as inconclusive are left out.

Test system: BDF1 mice, s.c. Lewis lung carcinoma, T/C %
Assay: NCI In Vivo Anticancer Drug Screen. Data for tumor model Lewis Lung Carcinoma (subcutaneous) in B6D2F1 (BDF1) mice
Summary of the method: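 Transplanted tumors grown in mice; compound vs vehicle dosing; endpoint survival or tumor size; ratio T/C.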

[1] = endpoint: mean tumor weight, dose: 25.0 mg/kg/injection, schedule: Q01DX011 (ip), vehicle: saline, higher = larger tumour
[2] = endpoint: mean tumor weight, dose: 50.0 mg/kg/injection, schedule: Q01DX011 (ip), vehicle: carboxymethylcellulose (CMC), higher = larger tumour

SMILES: CNc1nc(N(C)C)nc(N(C)C)n1
- T/C (endpoint: median survival time, dose: 67.0 mg/kg/injection, schedule: Q01DX009 (ip), vehicle: water, higher = longer survival): 91 % of control
- T/C (endpoint: median survival time, dose: 100.0 mg/kg/injection, schedule: Q01DX009 (ip), vehicle: water, higher = longer survival): 116 % of control

SMILES: CSc1ncc(Br)c(Sc2nc(N)nc3nc[nH]c23)n1
- T/C (endpoint: mean tumor weight, dose: 5.0 mg/kg/injection, schedule: Q01DX011 (ip), vehicle: other, higher = larger tumour): 57 % of control
- T/C (endpoint: mean tumor weight, dose: 10.0 mg/kg/injection, schedule: Q01DX011 (ip), vehicle: other, higher = larger tumour): 100 % of control
- T/C (endpoint: mean tumor weight, dose: 20.0 mg/kg/injection, schedule: Q01DX011 (ip), vehicle: other, higher = larger tumour): 65 % of control

SMILES: C/C=C1\CNC2Cc3c([nH]c4ccccc34)C(=O)CC1C2C(=O)OC (configuration not stated)
- T/C [1]: 88 % of control
- T/C (endpoint: mean tumor weight, dose: 50.0 mg/kg/injection, schedule: Q01DX011 (ip), vehicle: saline, higher = larger tumour): 97 % of control
- T/C (endpoint: mean tumor weight, dose: 100.0 mg/kg/injection, schedule: Q01DX011 (ip), vehicle: saline, higher = larger tumour): 84 % of control

SMILES: CC(C)C1(C(=O)NNC(=O)CCCc2ccc(N(CCCl)CCCl)cc2)OC2(O)CCCCCN2C1=O (configuration not stated)
- T/C (endpoint: median survival time, dose: 3.12 mg/kg/injection, schedule: Q04DX003 (ip), vehicle: DMSO, higher = longer survival): 111 % of control
- T/C (endpoint: median survival time, dose: 6.25 mg/kg/injection, schedule: Q04DX003 (ip), vehicle: DMSO, higher = longer survival): 116 % of control
- T/C (endpoint: median survival time, dose: 12.5 mg/kg/injection, schedule: Q04DX003 (ip), vehicle: DMSO, higher = longer survival): 102 % of control

SMILES: CNS(=O)(=O)c1ncnc2nc[nH]c12
- T/C (endpoint: mean tumor weight, dose: 22.0 mg/kg/injection, schedule: Q01DX011 (ip), vehicle: carboxymethylcellulose (CMC), higher = larger tumour): 61 % of control
- T/C (endpoint: mean tumor weight, dose: 35.0 mg/kg/injection, schedule: Q01DX011 (ip), vehicle: carboxymethylcellulose (CMC), higher = larger tumour): 62 % of control
- T/C [2]: 56 % of control

SMILES: COc1cccc(/C=N\NC(=O)C(C)SC(C)C(=O)N/N=C/c2cccc(OC)c2)c1 (configuration not stated)
- T/C (endpoint: mean tumor weight, dose: 25.0 mg/kg/injection, schedule: Q01DX011 (ip), vehicle: carboxymethylcellulose (CMC), higher = larger tumour): 82 % of control
- T/C [2]: 113 % of control
- T/C (endpoint: mean tumor weight, dose: 100.0 mg/kg/injection, schedule: Q01DX011 (ip), vehicle: carboxymethylcellulose (CMC), higher = larger tumour): 67 % of control
- T/C (endpoint: mean tumor weight, dose: 200.0 mg/kg/injection, schedule: Q01DX011 (ip), vehicle: carboxymethylcellulose (CMC), higher = larger tumour): 101 % of control
- T/C (endpoint: mean tumor weight, dose: 400.0 mg/kg/injection, schedule: Q01DX011 (ip), vehicle: carboxymethylcellulose (CMC), higher = larger tumour): 99 % of control
- T/C (endpoint: mean tumor weight, dose: 600.0 mg/kg/injection, schedule: Q01DX011 (ip), vehicle: carboxymethylcellulose (CMC), higher = larger tumour): 85 % of control

SMILES: C[N+](C)(C)c1ncnc2nc[nH]c12
- T/C (endpoint: mean tumor weight, dose: 15.0 mg/kg/injection, schedule: Q01DX011 (ip), vehicle: saline, higher = larger tumour): 87 % of control
- T/C (endpoint: mean tumor weight, dose: 30.0 mg/kg/injection, schedule: Q01DX011 (ip), vehicle: saline, higher = larger tumour): 100 % of control
- T/C (endpoint: mean tumor weight, dose: 60.0 mg/kg/injection, schedule: Q01DX011 (ip), vehicle: saline, higher = larger tumour): 55 % of control
- T/C (endpoint: mean tumor weight, dose: 120.0 mg/kg/injection, schedule: Q01DX011 (ip), vehicle: saline, higher = larger tumour): 59 % of control

SMILES: OCC(Br)CBr (configuration not stated)
- T/C (endpoint: mean tumor weight, dose: 37.0 mg/kg/injection, schedule: Q01DX011 (ip), vehicle: other, higher = larger tumour): 97 % of control
- T/C (endpoint: mean tumor weight, dose: 55.0 mg/kg/injection, schedule: Q01DX011 (ip), vehicle: other, higher = larger tumour): 66 % of control

SMILES: CCC[C@H]1CCCCN1
- T/C [1]: 88 % of control

SMILES: C[C@]12CCC(=O)C=C1CC[C@@H]1[C@@H]2C(=O)C[C@]2(C)C3=CC(=O)O[C@H]3C[C@@H]12
- T/C (endpoint: median survival time, dose: 3.13 mg/kg/injection, schedule: Q01DX009 (ip), vehicle: saline, higher = longer survival): 106 % of control
- T/C (endpoint: median survival time, dose: 6.25 mg/kg/injection, schedule: Q01DX009 (ip), vehicle: saline, higher = longer survival): 109 % of control
- T/C (endpoint: median survival time, dose: 12.5 mg/kg/injection, schedule: Q01DX009 (ip), vehicle: saline with Tween-80, higher = longer survival): 116 % of control
- T/C (endpoint: median survival time, dose: 12.5 mg/kg/injection, schedule: Q01DX009 (ip), vehicle: saline, higher = longer survival): 100 % of control
- T/C (endpoint: median survival time, dose: 25.0 mg/kg/injection, schedule: Q01DX009 (ip), vehicle: saline with Tween-80, higher = longer survival): 91 % of control

SMILES: Cc1ccc(NC(=O)c2ccccc2)cc1[As]=[As]c1cc(NC(=O)c2ccccc2)ccc1C (configuration not stated)
- T/C (endpoint: median survival time, dose: 0.63 mg/kg/injection, schedule: Q01DX009 (ip), vehicle: Klucel (hydroxypropylcellulose) (HPC), higher = longer survival): 100 % of control
- T/C (endpoint: median survival time, dose: 1.25 mg/kg/injection, schedule: Q01DX009 (ip), vehicle: Klucel (hydroxypropylcellulose) (HPC), higher = longer survival): 100 % of control

SMILES: OC1CC2CCC(C1)N2CCCN1c2ccccc2Sc2ccc(Cl)cc21 (configuration not stated)
- T/C (endpoint: median survival time, dose: 12.5 mg/kg/injection, schedule: Q01DX009 (ip), vehicle: Klucel (hydroxypropylcellulose) (HPC), higher = longer survival): 95 % of control
- T/C (endpoint: median survival time, dose: 25.0 mg/kg/injection, schedule: Q01DX009 (ip), vehicle: Klucel (hydroxypropylcellulose) (HPC), higher = longer survival): 96 % of control
- T/C (endpoint: median survival time, dose: 50.0 mg/kg/injection, schedule: Q01DX009 (ip), vehicle: Klucel (hydroxypropylcellulose) (HPC), higher = longer survival): 99 % of control
